Source: paper PMC5428509, “Irreversible inhibition of BTK kinase by a novel highly selective inhibitor CHMFL-BTK-11 suppresses inflammatory response in rheumatoid arthritis model” (Scientific Reports, 2017)

Key:
Assay in all cases: biochemical
Set-up in all cases: KinomeScan competition binding panel (DiscoveRx), percent of control at 1 uM
Conditions in all cases: read-out: Percent Control
MET(M1250T) = MET(M1250T) (Homo sapiens, UniProt P08581, M1250T)
Method in brief: (§1)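 KinomeScan technology used to profile binding across a panel of 456 kinases and mutants.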

PIK3CA(E545K) = PIK3CA(E545K) (Homo sapiens, UniProt P42336, E545K)
PIK3CA(E545K), sequence (P42336 whole entry E545K): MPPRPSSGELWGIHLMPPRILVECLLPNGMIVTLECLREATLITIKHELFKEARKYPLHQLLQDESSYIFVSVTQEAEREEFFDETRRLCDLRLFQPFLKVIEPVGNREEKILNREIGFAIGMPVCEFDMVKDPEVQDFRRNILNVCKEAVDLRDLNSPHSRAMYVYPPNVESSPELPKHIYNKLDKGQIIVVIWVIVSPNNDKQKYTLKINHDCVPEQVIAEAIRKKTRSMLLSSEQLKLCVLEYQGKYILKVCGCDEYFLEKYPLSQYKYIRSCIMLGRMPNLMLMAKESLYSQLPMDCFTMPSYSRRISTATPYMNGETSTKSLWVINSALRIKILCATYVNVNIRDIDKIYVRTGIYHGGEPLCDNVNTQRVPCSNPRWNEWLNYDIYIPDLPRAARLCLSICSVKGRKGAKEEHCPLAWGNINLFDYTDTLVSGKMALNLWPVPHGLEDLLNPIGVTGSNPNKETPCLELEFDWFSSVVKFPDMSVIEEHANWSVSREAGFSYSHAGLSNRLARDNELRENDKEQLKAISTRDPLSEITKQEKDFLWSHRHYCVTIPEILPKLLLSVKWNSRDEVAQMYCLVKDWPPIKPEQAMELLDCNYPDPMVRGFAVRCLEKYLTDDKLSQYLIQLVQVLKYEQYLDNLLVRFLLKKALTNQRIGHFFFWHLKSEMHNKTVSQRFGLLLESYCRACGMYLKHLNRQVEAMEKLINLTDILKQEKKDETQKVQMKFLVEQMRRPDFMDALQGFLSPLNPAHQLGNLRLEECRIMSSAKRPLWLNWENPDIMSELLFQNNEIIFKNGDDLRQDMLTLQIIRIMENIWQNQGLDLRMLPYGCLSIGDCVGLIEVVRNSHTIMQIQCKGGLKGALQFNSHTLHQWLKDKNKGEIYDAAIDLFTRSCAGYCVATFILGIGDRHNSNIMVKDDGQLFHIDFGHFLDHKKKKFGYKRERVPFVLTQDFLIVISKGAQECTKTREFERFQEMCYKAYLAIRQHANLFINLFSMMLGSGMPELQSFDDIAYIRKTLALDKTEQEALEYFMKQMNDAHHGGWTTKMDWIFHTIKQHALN
Method in brief: as §1

MTOR = MTOR (Homo sapiens, UniProt P42345)
Method in brief: as §1

MST4 = target: T1, MST4 (Homo sapiens, UniProt Q9P289)
T1 construct: gene STK26
T1 sequence (Q9P289 whole entry): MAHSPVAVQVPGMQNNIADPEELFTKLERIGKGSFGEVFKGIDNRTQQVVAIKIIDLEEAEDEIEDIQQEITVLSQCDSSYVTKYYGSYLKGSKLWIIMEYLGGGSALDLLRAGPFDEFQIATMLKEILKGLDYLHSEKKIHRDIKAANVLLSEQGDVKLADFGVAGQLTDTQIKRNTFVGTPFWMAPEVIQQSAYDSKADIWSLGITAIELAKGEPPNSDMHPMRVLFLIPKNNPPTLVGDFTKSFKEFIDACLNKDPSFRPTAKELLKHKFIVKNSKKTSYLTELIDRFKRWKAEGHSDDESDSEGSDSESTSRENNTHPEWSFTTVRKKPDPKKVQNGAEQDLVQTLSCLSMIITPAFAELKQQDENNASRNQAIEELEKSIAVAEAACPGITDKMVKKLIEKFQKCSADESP
Method in brief: as §1

MLK1 = target: T2, MLK1 (Homo sapiens, UniProt P80192)
T2 construct: gene MAP3K9
Method in brief: as §1

MEK6 = target: T3, MEK6 (Homo sapiens, UniProt P52564)
T3 construct: gene MAP2K6
T3 sequence (P52564 whole entry): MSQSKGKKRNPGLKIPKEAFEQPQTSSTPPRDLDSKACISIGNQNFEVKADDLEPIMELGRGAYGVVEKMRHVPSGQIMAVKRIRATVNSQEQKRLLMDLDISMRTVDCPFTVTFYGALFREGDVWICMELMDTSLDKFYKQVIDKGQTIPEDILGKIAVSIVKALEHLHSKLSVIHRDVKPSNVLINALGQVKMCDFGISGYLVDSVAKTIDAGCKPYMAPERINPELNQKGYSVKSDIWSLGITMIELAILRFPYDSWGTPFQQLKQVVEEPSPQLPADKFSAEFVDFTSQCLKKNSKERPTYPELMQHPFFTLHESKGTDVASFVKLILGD
Method in brief: as §1

[1] = target: T4, ABL1(F317L)-phosphorylated (Homo sapiens, UniProt P00519, F317L)
T4 construct: phosphorylated
Method in brief: as §1

PIM3 = PIM3 (Homo sapiens, UniProt Q86V86)
Method in brief: as §1

PAK2 = PAK2 (Homo sapiens, UniProt Q13177)
Method in brief: as §1

DMPK = DMPK (Homo sapiens, UniProt Q09013)
Method in brief: as §1

FLT3(ITD) = FLT3(ITD) (Homo sapiens, UniProt P36888, ITD)
Method in brief: as §1

[2] = target: T5, RSK3(Kin.Dom.2-C-terminal) (Homo sapiens, UniProt Q15349)
T5 construct: gene RPS6KA2; Kin.Dom.2-C-terminal
T5 sequence (Q15349 whole entry): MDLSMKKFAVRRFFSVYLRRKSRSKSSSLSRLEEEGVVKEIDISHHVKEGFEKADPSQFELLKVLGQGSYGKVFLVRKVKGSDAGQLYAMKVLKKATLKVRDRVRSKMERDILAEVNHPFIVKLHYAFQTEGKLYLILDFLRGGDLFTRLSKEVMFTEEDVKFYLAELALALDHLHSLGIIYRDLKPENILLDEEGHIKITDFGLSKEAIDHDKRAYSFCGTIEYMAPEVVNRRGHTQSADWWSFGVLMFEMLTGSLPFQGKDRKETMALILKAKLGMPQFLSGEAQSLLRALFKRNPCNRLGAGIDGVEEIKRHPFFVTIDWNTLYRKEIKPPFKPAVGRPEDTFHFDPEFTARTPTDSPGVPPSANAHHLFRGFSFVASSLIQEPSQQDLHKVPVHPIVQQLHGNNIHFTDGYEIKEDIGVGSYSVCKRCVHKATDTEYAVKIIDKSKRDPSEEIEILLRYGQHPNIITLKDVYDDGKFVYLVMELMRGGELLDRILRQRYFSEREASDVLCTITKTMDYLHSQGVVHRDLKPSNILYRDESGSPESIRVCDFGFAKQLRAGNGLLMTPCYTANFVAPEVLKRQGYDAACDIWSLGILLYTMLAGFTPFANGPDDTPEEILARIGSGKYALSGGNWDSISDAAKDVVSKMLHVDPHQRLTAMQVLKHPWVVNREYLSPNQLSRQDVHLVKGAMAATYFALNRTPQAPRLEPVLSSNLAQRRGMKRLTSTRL
Method in brief: as §1

PLK3 = PLK3 (Homo sapiens, UniProt Q9H4B4)
Method in brief: as §1

SLK = SLK (Homo sapiens, UniProt Q9H2G2)
Method in brief: as §1

EPHA5 = EPHA5 (Homo sapiens, UniProt P54756)
Method in brief: as §1

PIK3CA(E545A) = PIK3CA(E545A) (Homo sapiens, UniProt P42336, E545A)
PIK3CA(E545A), sequence (P42336 whole entry E545A): as the sequence (P42336 whole entry E545K) above, with K545A counted along it
Method in brief: as §1

ALK(C1156Y) = ALK(C1156Y) (Homo sapiens, UniProt Q9UM73, C1156Y)
Method in brief: as §1

MARK4 = MARK4 (Homo sapiens, UniProt Q96L34)
MARK4, sequence (Q96L34 whole entry): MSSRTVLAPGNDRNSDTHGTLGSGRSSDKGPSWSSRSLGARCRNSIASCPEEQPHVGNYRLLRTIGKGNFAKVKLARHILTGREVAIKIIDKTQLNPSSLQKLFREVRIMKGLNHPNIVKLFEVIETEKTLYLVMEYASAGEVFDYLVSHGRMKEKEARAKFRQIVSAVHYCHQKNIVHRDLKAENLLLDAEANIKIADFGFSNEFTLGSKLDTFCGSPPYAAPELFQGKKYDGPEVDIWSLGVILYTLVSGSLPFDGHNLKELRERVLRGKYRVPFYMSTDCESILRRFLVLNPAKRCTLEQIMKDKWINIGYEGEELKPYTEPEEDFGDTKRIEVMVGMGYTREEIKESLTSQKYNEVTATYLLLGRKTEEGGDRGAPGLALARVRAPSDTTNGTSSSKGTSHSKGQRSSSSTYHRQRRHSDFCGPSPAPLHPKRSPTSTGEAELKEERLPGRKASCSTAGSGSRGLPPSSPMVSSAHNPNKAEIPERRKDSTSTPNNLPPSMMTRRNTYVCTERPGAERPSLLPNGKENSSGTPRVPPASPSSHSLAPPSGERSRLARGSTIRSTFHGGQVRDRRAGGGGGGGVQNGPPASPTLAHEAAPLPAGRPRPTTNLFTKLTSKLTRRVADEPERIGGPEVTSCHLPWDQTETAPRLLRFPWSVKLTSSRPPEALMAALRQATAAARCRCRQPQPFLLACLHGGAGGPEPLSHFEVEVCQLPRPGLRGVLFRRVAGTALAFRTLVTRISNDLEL
Method in brief: as §1

[3] = target: T6, ABL1(T315I)-phosphorylated (Homo sapiens, UniProt P00519, T315I)
T6 construct: phosphorylated
Method in brief: as §1

GCN2(Kin.Dom.2,S808G) = target: T7, GCN2(Kin.Dom.2,S808G) (Homo sapiens, UniProt Q9P2K8, S808G)
T7 construct: gene EIF2AK4; Kin.Dom.2
Method in brief: as §1

CLK3 = CLK3 (Homo sapiens, UniProt P49761)
CLK3, sequence (P49761 whole entry): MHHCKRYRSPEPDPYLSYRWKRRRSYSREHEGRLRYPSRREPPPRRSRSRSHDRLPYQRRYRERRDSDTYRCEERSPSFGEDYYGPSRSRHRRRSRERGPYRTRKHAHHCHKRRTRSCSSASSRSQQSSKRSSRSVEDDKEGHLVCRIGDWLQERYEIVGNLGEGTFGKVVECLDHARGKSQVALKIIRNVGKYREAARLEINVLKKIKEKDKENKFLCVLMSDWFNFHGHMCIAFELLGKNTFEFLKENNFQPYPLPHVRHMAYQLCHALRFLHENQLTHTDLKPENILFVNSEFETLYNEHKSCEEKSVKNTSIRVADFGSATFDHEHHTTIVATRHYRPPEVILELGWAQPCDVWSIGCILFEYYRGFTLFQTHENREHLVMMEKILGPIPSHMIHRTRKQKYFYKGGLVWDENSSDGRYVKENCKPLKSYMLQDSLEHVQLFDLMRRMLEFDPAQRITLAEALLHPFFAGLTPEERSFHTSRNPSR
Method in brief: as §1

[4] = target: T8, ABL1(H396P)-phosphorylated (Homo sapiens, UniProt P00519, H396P)
T8 construct: phosphorylated
Method in brief: as §1

BUB1 = BUB1 (Homo sapiens, UniProt O43683)
Method in brief: as §1

[5] = target: T9, RSK2(Kin.Dom.2-C-terminal) (Homo sapiens, UniProt P51812)
T9 construct: gene RPS6KA3; Kin.Dom.2-C-terminal
T9 sequence (P51812 whole entry): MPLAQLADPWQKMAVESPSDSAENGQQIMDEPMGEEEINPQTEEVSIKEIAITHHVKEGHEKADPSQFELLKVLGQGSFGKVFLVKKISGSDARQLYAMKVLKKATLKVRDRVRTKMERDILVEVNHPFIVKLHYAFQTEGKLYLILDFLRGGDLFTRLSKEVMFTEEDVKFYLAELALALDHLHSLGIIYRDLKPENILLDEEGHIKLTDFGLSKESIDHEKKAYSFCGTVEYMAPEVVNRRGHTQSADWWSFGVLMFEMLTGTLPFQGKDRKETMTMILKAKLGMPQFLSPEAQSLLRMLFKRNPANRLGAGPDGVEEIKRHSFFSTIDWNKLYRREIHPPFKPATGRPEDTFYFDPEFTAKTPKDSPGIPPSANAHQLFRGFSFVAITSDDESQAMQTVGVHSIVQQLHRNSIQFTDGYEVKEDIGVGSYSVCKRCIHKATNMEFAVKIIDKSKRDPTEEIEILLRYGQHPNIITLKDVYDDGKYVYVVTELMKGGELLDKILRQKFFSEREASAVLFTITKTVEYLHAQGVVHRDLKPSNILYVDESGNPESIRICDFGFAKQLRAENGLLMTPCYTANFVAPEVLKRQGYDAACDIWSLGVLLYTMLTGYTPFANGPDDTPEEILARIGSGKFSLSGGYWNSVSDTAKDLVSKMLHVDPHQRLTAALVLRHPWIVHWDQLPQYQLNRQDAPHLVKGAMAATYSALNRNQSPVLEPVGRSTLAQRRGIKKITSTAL
Method in brief: as §1

## C=CC(=O)Nc1cc(-n2c(=O)ccc3cnc4ccc(-n5cccn5)cc4c32)ccc1C [CHMFL-BTK-11]
MET(M1250T)
  remaining binding at 1 µM: 100%
PIK3CA(E545K)
  remaining binding at 1 µM: 69%
MTOR
  remaining binding at 1 µM: 62%
MST4
  remaining binding at 1 µM: 96%
MLK1
  remaining binding at 1 µM: 100%
MEK6
  remaining binding at 1 µM: 79%
[1]
  remaining binding at 1 µM: 100%
PIM3
  remaining binding at 1 µM: 95%
PAK2
  remaining binding at 1 µM: 99%
DMPK
  remaining binding at 1 µM: 100%
FLT3(ITD)
  remaining binding at 1 µM: 89%
[2]
  remaining binding at 1 µM: 100%
PLK3
  remaining binding at 1 µM: 100%
SLK
  remaining binding at 1 µM: 100%
EPHA5
  remaining binding at 1 µM: 100%
PIK3CA(E545A)
  remaining binding at 1 µM: 76%
ALK(C1156Y)
  remaining binding at 1 µM: 94%
MARK4
  remaining binding at 1 µM: 79%
[3]
  remaining binding at 1 µM: 100%
GCN2(Kin.Dom.2,S808G)
  remaining binding at 1 µM: 100%
CLK3
  remaining binding at 1 µM: 100%
[4]
  remaining binding at 1 µM: 100%
BUB1
  remaining binding at 1 µM: 83%
[5]
  remaining binding at 1 µM: 100%
